“Also recorded” adds a separate entry of the source.
B1: recombinant mouse TACE (R&D Systems) (protein)
chain: RAEPNPLKNTCKLLVVADHRFYKYMGRGEESTTTNYLIELIDRVDDIYRNTSWDNAGFKGYGVQIEQIRILKSPQEVKPGERHFNMAKSFPNEEKDAWDVKMLLEQFSFDIAEEASKVCLAHLFTYQDFDMGTLGLAYVGSPRANSHGGVCPKAYYNPTVKKNIYLNSGLTSTKNYGKTILTKEADLVTTHELGHNFGAEHDPDGLAECAPNEDQGGKYVMYPIAVSGDHENNKMFSNCSKQSIYKTIESKAQECFQERSNKVCGNSRVDEGEECDPGIMYLNNDTCCNSDCTLKPGVQCSDRNSPCCKNCQFETAQKKCQEAINATCKGVSYCTGNSSECPPPGDAEDDTVCLDLGKCKAGKCIPFCKREQELESCACVDTDNSCKVCCRNLSGPCVPYVDAEQKNLFLRKGKPCTVGFCDMNGKCEKRVQDVIERFWDFIDQLSINTFGKFLADN

Assays:
[1] = system: TGFalpha release, HEK293T cells; assay: Time course after PMA induction of HEK293T cells overexpressing pro-TGFalpha, with protease inhibitors; type: cell-based, human; details: DCI 100 μM; HEK293T; Bcl-XL co-expressed
Protocol: Cell culture and cell-based rhomboid cleavage assay. Cells were propagated in DMEM supplemented with 10% fetal calf serum. COS-7 cells were transfected in 35 mm wells with FuGENE 6 (Roche) as described (7). In brief, 250 ng plasmid encoding the substrate (as indicated in the description of the figures), 25 ng for the rhomboid tested, 50 ng for the GRP receptor and empty plasmid to bring the total DNA to 1 μg was used. For protease titration, 2.5 ng to 250 ng plasmid coding RHBDL4 was used. HeLa and HEK293T were transfected with polyethyleneimine (linear, MW 25000; Polysciences) as described (32) using twice the amount of DNA as used with FuGENE. Transfection efficiency was monitored by co-transfection of pEGFP (Invitrogen). Sixteen hours post transfection, medium was replaced with serum-free medium containing 10 μM BB94 (British Biotech) unless otherwise stated. For activation of endogenous rhomboid activity, phorbol 12-myristate 13-acetate (PMA) (1 μM, from Sigma) or bombesin (100 nM, from Sigma) was added to the cell medium. For inhibitor studies, the indicated protease inhibitors (from Calbiochem), diluted from a stock solution in DMSO, were compared with a carrier only. Medium was harvested typically after 24 to 30 hours; for inhibitor studies using 3,4-Dichloroisocoumarin (DCI) a time course with 0 minutes, 30 minutes and 4 hours was performed (FIG. 4C). Cells were solubilized in SDS-sample buffer and analyzed by SDS-PAGE. EndoH (New England Biolabs) and PNGaseF (New England Biolabs) treatment of SDS-solubilized cell extracts was performed according to the manufacturers instructions. Conditioned media were centrifuged for 10 minutes at full speed in a microfuge to remove cell debris, and subsequently proteins in the supernatant were precipitated by adding trichloroacetic acid (TCA) to 10%. The precipitate was recovered by centrifugation, washed with acetone and dissolved in SDS-PAGE sample buffer and analyzed by SDS-PAGE. Alternatively to TCA precipitation, TGFalpha-H8 in conditioned medium was captured by metal-chelate chromatography using Ni-NTA agarose beads (Qiagen) in the presence of 20 mM imidazole at pH 8.0. Subsequently beads were washed with 20 mM Tris-Cl pH 8.0, 50 mM imidazole, eluted with SDS-sample buffer and analyzed by SDS-PAGE and Western blotting (see below). Typically, from a 35 mm tissue culture dish, 10% of cell extracts and 20% of tissue culture supernatant were loaded. To increase the sensitivity, for experiments shown in FIGS. 1C, 3E, 4A and 4C, five times the amount of the media fractions were loaded.
Western blotting. Proteins were analyzed by 4-20% Tris-Glycine gradient gels (Invitrogen) followed by Western blot analysis using either anti FLAG M2-HRP (1:1000; Sigma), anti HA antibody 16B12 (1:1000; Covance), anti actin antibody ab8227 (1:5000; Abcam) or affinity purified polyclonal rabbit antibody anti RHBDL4 (1:4000; see above). In order to detect the 6 kDa form of TGFalpha, proteins were transferred on PVDF membrane with 0.2 μm pore size (Millipore) and probed with 1:100 anti TGFalpha antibody 134A-2B3 (Oncogene). For the detection of phosphorylated EGFR, PVDF membranes were blocked in 3% BSA in TBS-Tween supplemented with 200 μM NaVO3. Protein was detected with anti phospho-EGFR antibody 9H2 (1:2000, Upstate). […] Bound antibodies were detected by incubation with secondary antibody (Santa Cruz Biotechnology) followed by enhanced chemiluminescence (Amersham Biosciences).

mouse RHBDL4 = target: T1, mouse RHBDL4 (Mus musculus, UniProt Q8BHC7); assay: In vitro activity assay with recombinant mouse RHBDL4 (Gurken TMD substrate); type: biochemical; design: His6 (C); made in house; host or cells: E. coli BL21-Gold(DE3) with pRARE2; Triton X-100 solubilised membrane fraction; details: Triton-X 100 solubilised E. coli membrane fraction; also run with mouse RHBDL1 and human RHBDL2
T1 sequence (Q8BHC7 1-315): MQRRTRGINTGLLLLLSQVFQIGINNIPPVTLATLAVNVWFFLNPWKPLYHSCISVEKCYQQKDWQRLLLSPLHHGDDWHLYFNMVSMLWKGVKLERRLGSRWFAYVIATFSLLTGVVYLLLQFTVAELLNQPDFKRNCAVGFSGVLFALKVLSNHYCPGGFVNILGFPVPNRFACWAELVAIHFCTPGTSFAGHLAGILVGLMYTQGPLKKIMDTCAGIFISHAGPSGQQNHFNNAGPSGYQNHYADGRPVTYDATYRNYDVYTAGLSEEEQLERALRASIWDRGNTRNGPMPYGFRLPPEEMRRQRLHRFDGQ
Text: To produce recombinant RHBDL4, a RHBDL4-purification tag fusion protein is expressed and solubilised with detergent appropriate for in vitro activity assay. In this example, C-terminally His6-tagged mouse RHBDL4 is expressed in E. coli BL21-Gold(DE3) cells harbouring the expression vector and the extra plasmid pRARE2 (Novagen) as described for human RHBDL2 (Lemberg, 2005, EMBO vol 24 pp 464-472).
After the protein expression, cells are disrupted and membranes containing the recombinant RHBDL4 are harvested by centrifugation as had been described (Lemberg, 2005 above).
Subsequently the recombinant protein is solubilised with the detergent Triton-X 100 and tested for activity.
Radiolabelled substrate, such as the substrate TMD, is generated by cell-free in vitro translation using wheat germ extract and [35S]methionine as, had been described (Lemberg and Martoglio, 2003 Anal Biochem. vol 319 pp 327-31).
In this example a substrate corresponding to an N-terminal methionine plus residues 224 to 272 of Drosophila Gurken is used. […]
For the cleavage assay, 1-4 μl in vitro translation mix or 50-200 μg/ml recombinant substrate are added to a 40 μl-reaction containing recombinant RHBDL4 (e.g. about 1-5 μg) in 50 mM HEPES/NaOH, pH 7.4, 10% glycerol and 50 mM EDTA. Samples are incubated at 30° C. and subsequently the cleavage reaction is analyzed by SDS-PAGE as described (Lemberg, 2005 above). […]

cells = assay: Toxicity of DCI to cells during TGFalpha release experiment; type: cell-based; details: over several hours, similar time course as TGFalpha release
Text: A central prediction of our model is that the observed BB94-insensitive TGFalpha release would be inhibited by the serine protease inhibitor DCI, a rhomboid inhibitor. […] To help the cells survive, we expressed the antiapoptotic protein Bch XL. […] Overall, these experiments strongly support that EGFR transactivation is triggered by RHBDL4-catalysed shedding of pro-TGFalpha.
Cell culture and cell-based rhomboid cleavage assay. Cells were propagated in DMEM supplemented with 10% fetal calf serum. COS-7 cells were transfected in 35 mm wells with FuGENE 6 (Roche) as described (7). In brief, 250 ng plasmid encoding the substrate (as indicated in the description of the figures), 25 ng for the rhomboid tested, 50 ng for the GRP receptor and empty plasmid to bring the total DNA to 1 μg was used. For protease titration, 2.5 ng to 250 ng plasmid coding RHBDL4 was used. […] Transfection efficiency was monitored by co-transfection of pEGFP (Invitrogen). […] Cells were solubilized in SDS-sample buffer and analyzed by SDS-PAGE. […] The precipitate was recovered by centrifugation, washed with acetone and dissolved in SDS-PAGE sample buffer and analyzed by SDS-PAGE. […] Subsequently beads were washed with 20 mM Tris-Cl pH 8.0, 50 mM imidazole, eluted with SDS-sample buffer and analyzed by SDS-PAGE and Western blotting (see below). […]

[2] = target: RHBDL4-processed extracellular TGFalpha (post-translationally modified higher MW forms), P01135
RHBDL4-processed extracellular TGFalpha (post-translationally modified higher MW forms), P01135, sequence (P01135 whole entry, looked up, tested part not stated): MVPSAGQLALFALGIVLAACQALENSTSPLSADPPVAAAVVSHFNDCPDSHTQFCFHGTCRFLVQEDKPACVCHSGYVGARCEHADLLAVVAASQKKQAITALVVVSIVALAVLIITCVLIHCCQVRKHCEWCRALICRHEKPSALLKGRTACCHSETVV

Row | Molecule | Release of the 37 kDa form of TGFalpha in response to PMA [1] | Cleavage of Drosophila Gurken TMD substrate (mouse RHBDL4) | Toxicity to cells (cells) | in vitro TACE cleavage assay (Western blot) [2]
1 | O=c1oc(Cl)c(Cl)c2ccccc12 [DCI, 3,4-Dichloroisocoumarin] | inhibited; also recorded: strong and specific inhibitory effect | inhibited | toxic to cells | –
2 | B1 | – | – | – | Recombinant TACE cleaved the post-translationally modified higher MW forms of TGFalpha. (filled triangles), generating the mature 6 kDa form

— patent publication US20100173972A1, “METHODS AND USES RELATED TO RHBDL4” (MEDICAL RESEARCH COUNCIL, priority 2007, published 2010)
